Laboratory results published in PMC10600005 (Nature, 2023).

Target: T1, nuclease P1 (P1 nuclease) (Penicillium citrinum, UniProt P24289)
T1 construct: commercial enzyme (New England Biolabs)
T1 sequence (P24289 1-270): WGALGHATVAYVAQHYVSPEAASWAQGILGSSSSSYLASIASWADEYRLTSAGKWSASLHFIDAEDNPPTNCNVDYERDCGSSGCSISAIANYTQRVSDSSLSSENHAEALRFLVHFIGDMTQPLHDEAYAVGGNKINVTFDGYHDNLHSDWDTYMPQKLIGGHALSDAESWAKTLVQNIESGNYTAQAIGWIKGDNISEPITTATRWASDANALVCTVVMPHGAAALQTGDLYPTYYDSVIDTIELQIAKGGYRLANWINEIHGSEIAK
Experiment: HPLC product analysis
Type: biochemical
Conditions: 50 mM sodium acetate pH 5.5, 37 C, 1 h, 100 uM substrate

SMILES	HPLC product analysis	HPLC product analysis (partial degradation)
Nc1ncnc2c1ncn2[C@@H]1O[C@H](COP(=O)(O)O[C@H]2[C@@H](O)[C@H](n3cnc4c(N)ncnc43)O[C@@H]2CSCC[C@H](N)C(=O)O)[C@@H](O)[C@H]1O [SAH-AMP]	SAH-AMP was completely degraded by nuclease P1	
C[S+](CC[C@H](N)C(=O)O)C[C@H]1O[C@@H](n2cnc3c(N)ncnc32)[C@H](O)[C@@H]1OP(=O)(O)OC[C@H]1O[C@@H](n2cnc3c(N)ncnc32)[C@H](O)[C@@H]1O (some centres unmarked) [SAM-AMP]		we observed only partial degradation of SAM-AMP
